Tests used:
Assay type in all cases: in vitro ADME
human BCRP = biological target: T1, human BCRP (Homo sapiens, UniProt Q9UNQ0); experiment: Inhibition of tracer uptake in BCRP-expressing vesicles; settings: ES 0.1 µM, 100 µM–12.5 mM fluciclovine
T1 construct: purchased GenoMembrane Co., Ltd. (Kanagawa, Japan); host or cells: Sf9
T1 sequence (Q9UNQ0 1-655): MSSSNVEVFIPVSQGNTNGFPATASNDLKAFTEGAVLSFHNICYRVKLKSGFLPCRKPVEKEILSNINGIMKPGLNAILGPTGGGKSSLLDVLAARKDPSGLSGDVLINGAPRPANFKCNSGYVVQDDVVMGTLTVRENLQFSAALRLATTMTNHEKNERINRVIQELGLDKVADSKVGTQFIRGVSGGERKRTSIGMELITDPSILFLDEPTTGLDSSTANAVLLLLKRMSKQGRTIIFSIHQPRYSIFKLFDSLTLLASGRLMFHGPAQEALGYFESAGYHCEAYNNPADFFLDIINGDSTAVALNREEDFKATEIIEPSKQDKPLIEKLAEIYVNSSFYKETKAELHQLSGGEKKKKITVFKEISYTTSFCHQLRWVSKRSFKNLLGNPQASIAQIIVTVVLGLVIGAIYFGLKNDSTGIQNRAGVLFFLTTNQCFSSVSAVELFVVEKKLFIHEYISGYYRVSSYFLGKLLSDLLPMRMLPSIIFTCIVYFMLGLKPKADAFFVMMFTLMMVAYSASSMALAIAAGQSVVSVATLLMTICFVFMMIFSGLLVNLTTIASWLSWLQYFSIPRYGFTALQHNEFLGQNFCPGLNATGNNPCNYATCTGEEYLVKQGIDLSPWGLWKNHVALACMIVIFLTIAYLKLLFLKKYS
Procedure: (§1) For ABC transporters, experimental kits containing Sf9-derived vesicles with high expression levels of human P-gp, MRP4, BCRP, and each ABC transporter (including buffer, ATP/AMP solution, and glutathione) were purchased from GenoMembrane Co., Ltd. (Kanagawa, Japan).
(§2) Vesicular transport assays were carried out according to the manufacturer’s protocol. […] The reaction was started by suspending 50 μg of vesicles (10 μL) in 40 μL of the reaction buffer. After incubation for an appropriate period of time, the reaction was stopped by the addition of ice-cold stop buffer (40 mM MOPS-Tris and 70 mM KCl; pH 7.0), after which the solution was filtered through a 0.45 μm HA filter (Millipore Corp., Billerica, MA, USA) using suction, and was washed twice in 5 mL of ice-cold stop buffer. The radioactivity of the filter was measured with a Tri-Carb 2910TR liquid scintillation counter (PerkinElmer) using Ultima Gold (PerkinElmer). The amount of tracer uptake was normalized to the membrane protein amount described in the product information sheets.

human P-gp = biological target: T2, human P-gp (Homo sapiens, UniProt P08183); experiment: [14C]fluciclovine uptake by P-gp-expressing inside-out vesicles
T2 construct: purchased GenoMembrane Co., Ltd. (Kanagawa, Japan); host or cells: Sf9
Procedure: as §1, §2

human MRP4 = biological target: T3, human MRP4 (Homo sapiens, UniProt O15439); experiment: [14C]fluciclovine uptake by MRP4-expressing inside-out vesicles
T3 construct: purchased GenoMembrane Co., Ltd. (Kanagawa, Japan); host or cells: Sf9
T3 sequence (O15439 1-1325): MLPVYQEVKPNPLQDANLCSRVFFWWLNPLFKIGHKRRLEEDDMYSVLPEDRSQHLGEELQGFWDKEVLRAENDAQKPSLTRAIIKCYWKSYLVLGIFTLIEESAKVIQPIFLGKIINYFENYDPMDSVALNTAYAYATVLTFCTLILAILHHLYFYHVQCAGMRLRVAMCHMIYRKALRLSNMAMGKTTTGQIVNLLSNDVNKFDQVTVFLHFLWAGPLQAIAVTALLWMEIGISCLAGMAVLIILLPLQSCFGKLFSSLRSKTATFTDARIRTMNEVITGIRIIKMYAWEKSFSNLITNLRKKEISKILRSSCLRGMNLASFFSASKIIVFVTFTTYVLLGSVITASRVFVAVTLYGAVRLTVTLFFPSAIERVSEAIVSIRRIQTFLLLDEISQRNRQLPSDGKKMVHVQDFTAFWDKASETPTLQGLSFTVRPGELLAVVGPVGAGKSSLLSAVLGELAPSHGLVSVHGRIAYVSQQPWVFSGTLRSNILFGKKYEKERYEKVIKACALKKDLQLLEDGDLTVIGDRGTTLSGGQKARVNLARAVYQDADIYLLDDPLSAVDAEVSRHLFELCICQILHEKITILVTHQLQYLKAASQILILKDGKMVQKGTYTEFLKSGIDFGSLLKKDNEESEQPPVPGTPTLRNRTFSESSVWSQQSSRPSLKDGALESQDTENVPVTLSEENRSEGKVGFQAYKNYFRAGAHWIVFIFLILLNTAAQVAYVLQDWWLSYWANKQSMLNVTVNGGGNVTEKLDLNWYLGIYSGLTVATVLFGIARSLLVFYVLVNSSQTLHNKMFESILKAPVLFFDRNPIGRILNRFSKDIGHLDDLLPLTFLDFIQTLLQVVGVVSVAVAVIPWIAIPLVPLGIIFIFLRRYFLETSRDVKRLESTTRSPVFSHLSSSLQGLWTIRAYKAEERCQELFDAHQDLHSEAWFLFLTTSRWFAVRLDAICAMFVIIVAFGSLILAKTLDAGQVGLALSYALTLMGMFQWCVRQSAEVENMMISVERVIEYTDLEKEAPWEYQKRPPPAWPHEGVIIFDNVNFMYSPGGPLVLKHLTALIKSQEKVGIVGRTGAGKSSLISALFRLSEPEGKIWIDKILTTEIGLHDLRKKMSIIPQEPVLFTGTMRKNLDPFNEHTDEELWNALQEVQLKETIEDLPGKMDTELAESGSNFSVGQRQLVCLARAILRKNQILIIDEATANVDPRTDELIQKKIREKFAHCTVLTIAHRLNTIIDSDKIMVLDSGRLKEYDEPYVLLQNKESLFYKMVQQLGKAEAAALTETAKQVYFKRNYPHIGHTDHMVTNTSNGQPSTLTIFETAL
Procedure: as §1, §2

T2 sequence (P08183 whole entry): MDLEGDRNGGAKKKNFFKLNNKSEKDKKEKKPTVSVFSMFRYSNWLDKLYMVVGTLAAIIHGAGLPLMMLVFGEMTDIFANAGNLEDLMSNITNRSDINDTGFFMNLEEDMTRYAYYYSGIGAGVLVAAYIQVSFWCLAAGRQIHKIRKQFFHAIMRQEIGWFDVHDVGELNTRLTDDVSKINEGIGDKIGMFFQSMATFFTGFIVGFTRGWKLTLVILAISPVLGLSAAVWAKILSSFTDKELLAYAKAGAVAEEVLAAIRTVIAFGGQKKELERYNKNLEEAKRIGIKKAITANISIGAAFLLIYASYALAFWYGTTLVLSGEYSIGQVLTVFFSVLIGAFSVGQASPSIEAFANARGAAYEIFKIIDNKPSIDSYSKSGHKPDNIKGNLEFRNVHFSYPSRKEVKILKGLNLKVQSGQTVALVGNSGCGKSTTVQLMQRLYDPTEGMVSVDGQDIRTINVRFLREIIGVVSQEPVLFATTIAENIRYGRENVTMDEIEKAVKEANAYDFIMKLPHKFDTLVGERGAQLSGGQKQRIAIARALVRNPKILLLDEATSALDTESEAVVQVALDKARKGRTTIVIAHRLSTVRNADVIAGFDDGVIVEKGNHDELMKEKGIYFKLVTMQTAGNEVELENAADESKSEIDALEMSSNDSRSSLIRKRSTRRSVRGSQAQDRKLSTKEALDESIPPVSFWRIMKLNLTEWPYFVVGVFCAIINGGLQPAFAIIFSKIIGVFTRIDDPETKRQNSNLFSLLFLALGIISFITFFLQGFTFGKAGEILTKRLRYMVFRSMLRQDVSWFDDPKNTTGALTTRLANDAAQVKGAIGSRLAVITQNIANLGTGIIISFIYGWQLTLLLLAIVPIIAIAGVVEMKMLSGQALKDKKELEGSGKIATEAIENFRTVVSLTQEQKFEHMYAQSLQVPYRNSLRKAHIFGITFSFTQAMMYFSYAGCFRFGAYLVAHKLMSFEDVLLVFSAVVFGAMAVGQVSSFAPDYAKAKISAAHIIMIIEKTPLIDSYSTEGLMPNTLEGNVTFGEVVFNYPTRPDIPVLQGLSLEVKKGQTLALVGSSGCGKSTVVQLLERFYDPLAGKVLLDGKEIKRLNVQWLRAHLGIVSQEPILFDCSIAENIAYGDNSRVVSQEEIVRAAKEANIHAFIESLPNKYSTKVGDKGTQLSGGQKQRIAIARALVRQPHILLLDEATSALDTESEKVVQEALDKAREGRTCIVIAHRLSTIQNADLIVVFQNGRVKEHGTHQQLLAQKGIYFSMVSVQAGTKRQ

Structure (SMILES)	inhibition of transport of BCRP-specific substrate [3H]estrone-3-sulfate (human BCRP)	uptake compared with control vesicles (human P-gp)	uptake compared with control vesicles (human MRP4)
N[C@]1(C(=O)O)C[C@@H](F)C1 [fluciclovine]	does not inhibit		
N[14C]1(C(=O)O)CC(F)C1 (stereo not drawn) [[^14C]fluciclovine, trans-1-amino-3-fluoro[1-^14C]cyclobutanecarboxylic acid]		no significant difference	no significant difference
